Results on three molecules are retold here after ChEMBL document CHEMBL5728519, “Compounds of formulas (VII), (VIII), (IX), (XI), (XII), (XIII), and (XIV) as muscarinic receptor 4(M4) antagonists for treating neurological diseases” (2021).

pKi: −log10 of the molar value.

Test [1] deals with T1, Muscarinic acetylcholine receptor M1 (Homo sapiens, UniProt P11229).
T1 sequence (P11229 whole entry): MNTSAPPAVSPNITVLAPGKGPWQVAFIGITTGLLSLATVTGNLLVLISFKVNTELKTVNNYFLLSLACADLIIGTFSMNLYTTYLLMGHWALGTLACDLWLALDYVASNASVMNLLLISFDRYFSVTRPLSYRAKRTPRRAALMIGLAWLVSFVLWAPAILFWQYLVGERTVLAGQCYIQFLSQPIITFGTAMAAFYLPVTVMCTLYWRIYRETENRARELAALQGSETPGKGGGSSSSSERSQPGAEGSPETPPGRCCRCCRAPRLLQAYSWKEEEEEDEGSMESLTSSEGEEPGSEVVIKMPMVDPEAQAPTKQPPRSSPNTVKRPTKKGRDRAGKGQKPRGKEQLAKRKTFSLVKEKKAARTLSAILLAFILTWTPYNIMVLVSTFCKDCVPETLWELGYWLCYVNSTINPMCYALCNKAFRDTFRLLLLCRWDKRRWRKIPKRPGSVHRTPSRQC
Nature of the test: (§1) Binding Assay: Binding affinity (Ki) of compounds was measured by inhibition of radioligand binding to membranes from CHO cells expressing human M1, M2, M3, M4 and M5 receptors. Membranes were prepared by nitrogen cavitation and differential centrifugation as previously described (Hoare et al., Mol. Pharmacol. 2003 March; 63(3): 751-65). The radioligand employed was tritiated N-methylscopolamine, used at a concentration of 1.5 nM. A dose-response of twelve concentrations of compound was used, […]. The assay buffer was 50 mM HEPES, 100 mM NaCl, 5 mM MgCl2, 1 mM ethylenediaminetetraacetic acid, pH-adjusted to pH 7.4.

Test [2] deals with T2, Muscarinic acetylcholine receptor M4 (Homo sapiens, UniProt P08173).
T2 sequence (P08173 whole entry): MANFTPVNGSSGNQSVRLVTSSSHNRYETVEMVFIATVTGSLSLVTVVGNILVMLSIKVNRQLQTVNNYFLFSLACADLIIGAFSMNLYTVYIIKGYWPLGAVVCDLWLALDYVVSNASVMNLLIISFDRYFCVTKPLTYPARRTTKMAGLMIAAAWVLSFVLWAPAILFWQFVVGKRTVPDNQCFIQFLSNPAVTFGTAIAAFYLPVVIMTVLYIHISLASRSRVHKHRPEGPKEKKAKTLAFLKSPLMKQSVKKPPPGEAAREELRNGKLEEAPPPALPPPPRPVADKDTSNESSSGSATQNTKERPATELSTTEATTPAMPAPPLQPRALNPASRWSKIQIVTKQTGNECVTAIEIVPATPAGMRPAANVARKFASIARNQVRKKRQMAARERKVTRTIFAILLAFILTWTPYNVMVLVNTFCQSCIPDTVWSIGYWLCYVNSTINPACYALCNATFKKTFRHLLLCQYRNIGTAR
The description is as §1.

`C[C@@H]1CN(c2ncc(C(F)(F)F)c(N)n2)CCN1C(=O)NCCC1CCN(Cc2ccccc2)CC1` had a pKi in test [1] of 7.00 to 8.00.

In test [2], `COc1ccc(N2CCN(C(=O)NCCC3CCN(Cc4ccccc4)CC3)[C@H](C)C2)cc1C#N` had a pKi of 7.00 to 8.00.

`C[C@@H]1CN(c2ncc(C(F)(F)F)cn2)CCN1C(=O)NCCC1CCN(Cc2ccccc2)CC1` had a pKi in test [1] of 6.00 to 7.00.
